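1) Cells in 96-well plates. 2) Compound, 48 h, 5 concentrations. 3) Linear interpolation between surrounding doses. 4) Unreached endpoint = highest concentration. The concentration for 50% growth inhibition is given as GI50. TGI: concentration producing complete growth inhibition.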
How the values were obtained:
Test in all cases: DTP human tumour cell line panel, 48 h
[1] = tested on: 786-0 renal
[2] = tested on: A498 renal
[3] = tested on: A549 NSCLC
[4] = tested on: ACHN renal
[5] = tested on: BT-549 breast
[6] = tested on: CAKI-1 renal
[7] = tested on: CCRF-CEM leukemia
[8] = tested on: COLO 205 colon
[9] = tested on: DU-145 prostate
[10] = tested on: EKVX NSCLC
[11] = tested on: HCC-2998 colon
[12] = tested on: HCT-116 colon
[13] = tested on: HCT-15 colon
[14] = tested on: HL-60(TB) leukemia
[15] = tested on: HOP-62 NSCLC
[16] = tested on: HOP-92 NSCLC
[17] = tested on: HS 578T breast
[18] = tested on: HT29 colon
[19] = tested on: IGROV1 ovarian
[20] = tested on: K-562 leukemia
[21] = tested on: KM12 colon
[22] = tested on: LOX IMVI melanoma
[23] = tested on: M14 melanoma
[24] = tested on: MCF7 breast
[25] = tested on: MDA-MB-231 breast
[26] = tested on: MDA-MB-435
[27] = tested on: MOLT-4 leukemia
[28] = tested on: NCI-H226 lung
[29] = tested on: NCI-H23 lung
[30] = tested on: NCI-H460 lung
[31] = tested on: NCI-H522 lung
[32] = tested on: NCI/ADR-RES ovarian
[33] = tested on: OVCAR-3 ovarian
[34] = tested on: OVCAR-4 ovarian
[35] = tested on: OVCAR-5 ovarian
[36] = tested on: OVCAR-8 ovarian
[37] = tested on: PC-3 prostate
[38] = tested on: RPMI-8226 leukemia
[39] = tested on: RXF 393 renal
[40] = tested on: SF-268 CNS
[41] = tested on: SF-295 CNS
[42] = tested on: SF-539 CNS
[43] = tested on: SK-MEL-2 melanoma
[44] = tested on: SK-MEL-28 melanoma
[45] = tested on: SN12C renal
[46] = tested on: SNB-19 CNS
[47] = tested on: SNB-75 CNS
[48] = tested on: SR leukemia
[49] = tested on: SW-620 colon
[50] = tested on: T-47D breast
[51] = tested on: TK-10 renal
[52] = tested on: U251 CNS
[53] = tested on: UACC-257 melanoma
[54] = tested on: UACC-62 melanoma
[55] = tested on: UO-31 renal
[56] = tested on: MALME-3M melanoma
[57] = tested on: SK-MEL-5 melanoma
[58] = tested on: SK-OV-3 ovarian

COC1C(O)CC(OC2CC(OC3CC(O[C@@H]4C(=O)c5c(cc6cc(OC7CC(OC8CC(O)C(O)C(C)O8)C(O)C(C)O7)c(C)c(O)c6c5O)CC4[C@H](OC)C(=O)C(C)=O)OC(C)C3O)OC(C)C2O)OC1C (some centres undefined)
GI50 [1]: 33.1 nM
TGI [1]: > 33300 nM
GI50 [2]: 23.3 nM
TGI [2]: 88.4 nM
GI50 [3]: 15.9 nM
TGI [3]: > 33300 nM
GI50 [4]: 52 nM
TGI [4]: > 33300 nM
GI50 [5]: 10 nM
TGI [5]: 33.5 nM
GI50 [6]: 41.5 nM
TGI [6]: > 33300 nM
GI50 [7]: 15.6 nM
TGI [7]: 673 nM
GI50 [8]: 12.1 nM
TGI [8]: 31.9 nM
GI50 [9]: 15.5 nM
TGI [9]: > 32200 nM
GI50 [10]: 20.1 nM
TGI [10]: > 33300 nM
GI50 [11]: 10.6 nM
TGI [11]: 40.2 nM
GI50 [12]: 11.2 nM
TGI [12]: > 33300 nM
GI50 [13]: 101 nM
TGI [13]: > 33300 nM
GI50 [14]: 15.9 nM
TGI [14]: 59.4 nM
GI50 [15]: 8.95 nM
TGI [15]: 26.9 nM
GI50 [16]: 10.8 nM
TGI [16]: 66.9 nM
GI50 [17]: 11.1 nM
TGI [17]: > 11300 nM
GI50 [18]: 12.2 nM
TGI [18]: 53.5 nM
GI50 [19]: 15.9 nM
TGI [19]: > 33300 nM
GI50 [20]: 15.8 nM
GI50 [21]: 10.9 nM
TGI [21]: > 16000 nM
GI50 [22]: 8.5 nM
TGI [22]: 22.9 nM
GI50 [23]: 8.43 nM
TGI [23]: 21.4 nM
GI50 [24]: 10.8 nM
TGI [24]: > 33300 nM
GI50 [25]: 49.5 nM
TGI [25]: > 33300 nM
GI50 [26]: 14.9 nM
TGI [26]: 34.3 nM
GI50 [27]: 12.3 nM
TGI [27]: 60.7 nM
GI50 [28]: 13.2 nM
GI50 [29]: 12.5 nM
TGI [29]: 66.1 nM
GI50 [30]: 12 nM
TGI [30]: > 33300 nM
GI50 [31]: 8.77 nM
TGI [31]: 32.1 nM
GI50 [32]: 433 nM
TGI [32]: > 33300 nM
GI50 [33]: 13.1 nM
TGI [33]: 67.3 nM
GI50 [34]: 24.5 nM
TGI [34]: 10800 nM
GI50 [35]: 23.4 nM
TGI [35]: > 33300 nM
GI50 [36]: 13.2 nM
TGI [36]: > 33300 nM
GI50 [37]: < 14.2 nM
TGI [37]: > 22600 nM
GI50 [38]: 10.6 nM
TGI [38]: 206 nM
GI50 [39]: 25.2 nM
TGI [39]: 103 nM
GI50 [40]: 13.7 nM
TGI [40]: 138 nM
GI50 [41]: 11 nM
GI50 [42]: 9.76 nM
TGI [42]: 27.4 nM
GI50 [43]: 9.27 nM
TGI [43]: 27.5 nM
GI50 [44]: 10.6 nM
TGI [44]: 52.8 nM
GI50 [45]: 13.8 nM
TGI [45]: > 33300 nM
GI50 [46]: 10.5 nM
TGI [46]: > 33300 nM
GI50 [47]: 6.78 nM
TGI [47]: 20 nM
GI50 [48]: 9.1 nM
TGI [48]: 64.5 nM
GI50 [49]: 15.5 nM
TGI [49]: > 33300 nM
GI50 [50]: 12 nM
TGI [50]: 79.1 nM
GI50 [51]: 20.4 nM
TGI [51]: 75.8 nM
GI50 [52]: < 10.6 nM
TGI [52]: > 33300 nM
GI50 [53]: 10.7 nM
TGI [53]: 41.4 nM
GI50 [54]: 7.19 nM
TGI [54]: 16.7 nM
GI50 [55]: < 20 nM

CCN(Cc1cccnc1)c1ccc(CO)c(Cl)c1
GI50 [1]: > 45500 nM
TGI [1]: > 100000 nM
GI50 [2]: 79.7 nM
TGI [2]: 236 nM
GI50 [3]: 5730 nM
TGI [3]: > 75800 nM
GI50 [4]: 97700 nM
TGI [4]: > 100000 nM
GI50 [5]: > 94300 nM
TGI [5]: > 100000 nM
GI50 [6]: 22500 nM
TGI [6]: > 100000 nM
GI50 [7]: > 96000 nM
TGI [7]: > 100000 nM
GI50 [8]: 1420 nM
TGI [8]: 5330 nM
GI50 [9]: > 81300 nM
TGI [9]: > 100000 nM
GI50 [11]: 10400 nM
TGI [11]: > 100000 nM
GI50 [12]: 298 nM
TGI [12]: > 100000 nM
GI50 [13]: > 88800 nM
TGI [13]: > 100000 nM
GI50 [14]: 22600 nM
TGI [14]: > 100000 nM
GI50 [15]: 7300 nM
TGI [15]: > 100000 nM
GI50 [16]: 3210 nM
TGI [16]: 66400 nM
GI50 [17]: > 100000 nM
TGI [17]: > 100000 nM
GI50 [18]: 4670 nM
TGI [18]: > 100000 nM
GI50 [19]: 241 nM
TGI [19]: 1120 nM
GI50 [20]: 5580 nM
TGI [20]: > 100000 nM
GI50 [21]: > 100000 nM
TGI [21]: > 100000 nM
GI50 [22]: > 100000 nM
TGI [22]: > 100000 nM
GI50 [23]: > 100000 nM
TGI [23]: > 100000 nM
GI50 [56]: > 100000 nM
TGI [56]: > 100000 nM
GI50 [24]: 459 nM
TGI [24]: > 100000 nM
GI50 [25]: > 95800 nM
TGI [25]: > 100000 nM
GI50 [26]: > 100000 nM
TGI [26]: > 100000 nM
GI50 [27]: > 94900 nM
TGI [27]: > 100000 nM
GI50 [28]: 88.5 nM
TGI [28]: 269 nM
GI50 [29]: 45000 nM
TGI [29]: > 100000 nM
GI50 [30]: 555 nM
TGI [30]: 8660 nM
GI50 [31]: > 100000 nM
TGI [31]: > 100000 nM
GI50 [32]: 36500 nM
TGI [32]: > 100000 nM
GI50 [33]: 1130 nM
TGI [33]: 5360 nM
GI50 [34]: 433 nM
TGI [34]: 4630 nM
GI50 [35]: 244 nM
TGI [35]: 915 nM
GI50 [36]: 34900 nM
TGI [36]: > 100000 nM
GI50 [37]: 58400 nM
TGI [37]: > 100000 nM
GI50 [38]: 11100 nM
TGI [38]: > 100000 nM
TGI [39]: > 100000 nM
GI50 [40]: > 100000 nM
TGI [40]: > 100000 nM
GI50 [41]: 1060 nM
TGI [41]: > 100000 nM
GI50 [42]: > 100000 nM
TGI [42]: > 100000 nM
GI50 [43]: > 37000 nM
TGI [43]: > 100000 nM
GI50 [44]: > 100000 nM
TGI [44]: > 100000 nM
GI50 [57]: 15100 nM
TGI [57]: > 60200 nM
GI50 [58]: 23500 nM
TGI [58]: > 100000 nM
GI50 [45]: > 87500 nM
TGI [45]: > 100000 nM
GI50 [46]: > 100000 nM
TGI [46]: > 100000 nM
GI50 [47]: 65900 nM
TGI [47]: > 100000 nM
GI50 [48]: > 100000 nM
TGI [48]: > 100000 nM
GI50 [49]: 3660 nM
TGI [49]: > 100000 nM
GI50 [50]: 269 nM
TGI [50]: 1540 nM
GI50 [51]: 120 nM
TGI [51]: 333 nM
GI50 [52]: 3750 nM
TGI [52]: > 100000 nM
GI50 [53]: 195 nM
TGI [53]: 621 nM
GI50 [54]: 289 nM
TGI [54]: 2050 nM
GI50 [55]: 20000 nM
TGI [55]: > 100000 nM

Reference: PubChem BioAssay (NCI)
